Test results from patent publication EP4180043A1, “RUTHENIUM COMPLEXES” (Universidad de Almeria, priority 2020, dated 2022).

test system: cancer cells; test: antiproliferative activity (anticancer properties); assay type: cell-based; conditions: cell line not stated; cisplatin in the same experiment; read-out: antiproliferative activity indicated by the cell survival half-life factor (IC50)
Description: Three examples of bi-heterometallic compounds which would be obtained from that compound present better activity as shown by their IC50: IC50 Ru-Zn: 9.07±0.27; IC50 Ru-Co: 5.40±0.19; IC50 Ru-Ni: 7.15±0.30 µM. Ru-Zn = [Ru(η^6-C10H14)(Cl2)-µ-dmoPTA-1κP:2κ^2N,N'-ZnCl2]. Ru-Co = [Ru(η^6-C10H14)(Cl2)-µ-dmoPTA-1κP:2κ^2N,N'-CoCl2]. Ru-Ni = [Ru(η^6-C10H14)(Cl2)-µ-dmoPTA-1κP:2κ^2N,N'-NiCl2].

Molecule | IC50 [µM]
N.N.[Cl][Pt][Cl] [cisplatin, reference compound] | 45.6 ± 8.08
[Ru(η^6-C10H14)(Cl2)(HdmoPTA)](OSO2CF3) | 32.09 ± 0.3
[Ru(η^6-C10H14)(Cl2)-µ-dmoPTA-1κP:2κ^2N,N'-CoCl2] [Ru-Co] | 5.4 ± 0.19
[Ru(η^6-C10H14)(Cl2)-µ-dmoPTA-1κP:2κ^2N,N'-NiCl2] [Ru-Ni] | 7.15 ± 0.3
[Ru(η^6-C10H14)(Cl2)-µ-dmoPTA-1κP:2κ^2N,N'-ZnCl2] [Ru-Zn] | 9.07 ± 0.27
